From patent US20240285614A1, “PHENOL RIBONUCLEOTIDE REDUCTASE (RNR) INHIBITORS AND USES THEREOF” (Boundless Bio, Inc., priority 2023, published 2024)
pIC50: −log10 of the molar value.

Experiments:
[1] = system: pCHK1 (S345) in Colo320 DM cells; assay: Alphalisa assay, detection of pCHK1 (S345) in Colo320 DM cells; type: cell-based; conditions: Homo sapiens, COLO 320DM, compound incubation overnight (approximately 16 hours)
Description: Colo320 DM cells (ATCC #CCL-220, derived from human colorectal adenocarcinoma, Dukes' type C) were seeded on a 96-well, cell culture treated assay plate at a density of 50,000 cells/well in 200 μL of RPMI-1640 media supplemented with 10% Fetal Bovine Serum and incubated at 37° C. overnight. The following day, test compound dilutions were added directly to the plated cells by a Tecan digital dispenser to a final DMSO concentration of <0.5%, and incubated at 37° C. overnight (approximately 16 hours). The following day all cull culture media was removed from the cells. 75 μL of 1× AlphaLisa lysis buffer was added to each well and plates were agitated on a shaker for 30 minutes at room temperature. The lysis of cells and detection of pCHK1 (S345) were performed with regents contained within the AlphaLisa Sure Fire assay kit (Perkin Elmer #ALSU-PCHK1-A) according to the manufacturer's instructions. 10 μL of each lysate was then transferred to a white, 384-well assay plate (Perkin Elmer #6008280), 5 μL of Acceptor mix was then added to each well of lysate in the white, 384-well assay plate and incubated in the dark at room temperature for 60 minutes. 5 μL of Donor mix was then added to each well of the white, 384-well assay plate in subdued light and incubated at room temperature for 60 minutes. Plates were read on an Alpha Technology-compatible plate reader using standard AlphaLisa settings.

RNR (RNR1:RNR2 1:1) = target: T1, RNR (RNR1:RNR2 1:1) (Homo sapiens, UniProt P23921+P31350); assay: RNR enzyme activity, rapid-fire mass spectrometry (RF/MS) assay; type: biochemical; conditions: RNR 50 nM, 1:1 (RNR1:RNR2); CDP 5 μM; ATP 1 mM; 37° C., 45 min; compounds screened up to 50 μM
T1 sequence (P23921 1-792): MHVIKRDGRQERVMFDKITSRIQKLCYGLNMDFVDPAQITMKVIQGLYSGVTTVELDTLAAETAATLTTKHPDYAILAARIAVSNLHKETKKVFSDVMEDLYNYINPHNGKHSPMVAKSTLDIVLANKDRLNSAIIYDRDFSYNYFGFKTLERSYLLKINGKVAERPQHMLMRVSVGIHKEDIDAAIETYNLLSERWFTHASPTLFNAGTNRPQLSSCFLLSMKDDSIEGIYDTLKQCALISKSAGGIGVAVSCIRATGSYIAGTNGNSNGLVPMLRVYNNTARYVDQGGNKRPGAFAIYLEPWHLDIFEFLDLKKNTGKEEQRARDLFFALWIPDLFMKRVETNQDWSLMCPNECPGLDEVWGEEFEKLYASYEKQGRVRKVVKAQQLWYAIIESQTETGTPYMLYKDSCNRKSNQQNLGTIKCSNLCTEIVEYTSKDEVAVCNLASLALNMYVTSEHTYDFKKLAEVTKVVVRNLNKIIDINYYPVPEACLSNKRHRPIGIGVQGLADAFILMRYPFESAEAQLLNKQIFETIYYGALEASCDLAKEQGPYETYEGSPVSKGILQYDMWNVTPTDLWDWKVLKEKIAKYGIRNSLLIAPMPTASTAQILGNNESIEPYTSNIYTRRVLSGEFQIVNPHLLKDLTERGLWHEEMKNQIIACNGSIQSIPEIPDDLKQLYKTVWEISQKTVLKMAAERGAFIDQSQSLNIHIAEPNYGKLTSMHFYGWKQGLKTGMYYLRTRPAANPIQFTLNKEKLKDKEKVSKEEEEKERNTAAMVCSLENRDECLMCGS
T1 sequence (P31350 1-389): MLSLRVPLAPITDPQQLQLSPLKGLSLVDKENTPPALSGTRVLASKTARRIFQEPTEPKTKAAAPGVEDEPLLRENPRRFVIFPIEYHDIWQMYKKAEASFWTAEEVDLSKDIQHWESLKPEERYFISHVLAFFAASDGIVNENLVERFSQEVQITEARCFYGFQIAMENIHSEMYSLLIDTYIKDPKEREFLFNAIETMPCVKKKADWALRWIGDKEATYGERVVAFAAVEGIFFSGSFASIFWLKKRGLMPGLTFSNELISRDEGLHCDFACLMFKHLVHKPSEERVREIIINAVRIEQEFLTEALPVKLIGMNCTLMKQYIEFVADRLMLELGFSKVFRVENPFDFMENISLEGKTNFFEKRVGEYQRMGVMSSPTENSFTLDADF
Description: A rapid-fire mass spectrometry (RF/MS) assay was used to assess RNR enzyme activity using a 384 well plate and a robotic platform.
The plate layout included two validated reference compounds (Triapine (3-AP) and Hydroxyurea (HU)): • A dose response in duplicate, top concentration: 5 μM (3-AP) and 250 μM (HU), semi-log • dilutions. • Spike wells in triplicate randomly spotted at four concentrations: • 250 μM, 100 μM, 30 μM and 2 μM for HU • 5 μM, 2 μM, 0.6 μM and 0.04 μM for 3-AP
First, the multidrop pipes were saturated for 30 minutes with enzymatic solution. Then 30 μL of Stop solution was distributed in column 24. Next, 15 μL of enzyme was distributed in column 1 to 24. Next, a pre-incubation step of 15 minutes at room temperature occurred, followed by distribution of 15 μL of substrate solution (column 1 to 24). Next, the plate was incubated for 45 minutes at 37° C. 30 μL of Stop solution was distributed to columns 1 to 23.
The final parameters for the enzyme reactions were: • Incubation: 37° C., 45 min • [CDP]: 5 μM: [ATP]: 1 mM; [NADPH]: No • [RNR]final: 50 nM with 1:1 (RNR1:RNR2) ratio • Final volume: 30 μL • Stop solution: 6% HCOOH containing 2 μM of 15

O=S(=O)(c1ccc2cc[nH]c2c1)N1CCCN(c2ccc(O)cc2)CC1 [compound 14, 4-(4-((1H-indol-6-yl)sulfonyl)-1,4-diazepan-1-yl)phenol]
pIC50 [1]: 5.00 to 5.30 | pIC50 (RNR (RNR1:RNR2 1:1)): ≥ 7.30

CN(c1ccc(O)cc1)C1CCN(S(=O)(=O)c2ccc3cc[nH]c3c2)CC1 [compound 15, 4-((1-((1H-indol-6-yl)sulfonyl)piperidin-4-yl)(methyl)amino)phenol]
pIC50 [1]: 5.30 to 6.00 | pIC50 (RNR (RNR1:RNR2 1:1)): 7.00 to 7.30

CN(C1CN(c2ccc(O)cc2)C1)S(=O)(=O)c1ccc2cc[nH]c2c1 [compound 16, N-(1-(4-hydroxyphenyl)azetidin-3-yl)-N-methyl-1H-indole-6-sulfonamide]
pIC50 [1]: 5.30 to 6.00 | pIC50 (RNR (RNR1:RNR2 1:1)): 6.30 to 7.00

O=S(=O)(c1ccc2cc[nH]c2c1)N1C[C@H]2COC[C@@H](C1)N2c1ccc(O)cc1 [compound 17, 4-((1R,5S)-7-((1H-indol-6-yl)sulfonyl)-3-oxa-7,9-diazabicyclo[3.3.1]nonan-9-yl)phenol]
pIC50 [1]: ≥ 6.00 | pIC50 (RNR (RNR1:RNR2 1:1)): ≥ 7.30

CN(c1ccc(O)cc1)C1CN(S(=O)(=O)c2ccc3cn[nH]c3c2)C1 [compound 18, 4-((1-((1H-indazol-6-yl)sulfonyl)azetidin-3-yl)(methyl)amino)phenol]
pIC50 [1]: 4.30 to 5.00 | pIC50 (RNR (RNR1:RNR2 1:1)): 6.30 to 7.00

O=S(=O)(c1ccc2cc[nH]c2c1)N1CC(N(c2ccc(O)cc2)C2CC2)C1 [compound 19, 4-((1-((1H-indol-6-yl)sulfonyl)azetidin-3-yl)(cyclopropyl)amino)phenol]
pIC50 [1]: 5.30 to 6.00 | pIC50 (RNR (RNR1:RNR2 1:1)): ≥ 7.30

C[C@@H]1CN(c2ccc(O)cc2)CCN1S(=O)(=O)c1ccc2cc[nH]c2c1 [compound 21, (R)-4-(4-((1H-indol-6-yl)sulfonyl)-3-methylpiperazin-1-yl)phenol]
pIC50 [1]: 5.30 to 6.00 | pIC50 (RNR (RNR1:RNR2 1:1)): ≥ 7.30

CN(c1ccc(O)cc1)C1CN(S(=O)(=O)c2cc3[nH]cc(Cl)c3cc2F)C1 [compound 22, 4-((1-((3-chloro-5-fluoro-1H-indol-6-yl)sulfonyl)azetidin-3-yl)(methyl)amino)phenol]
pIC50 [1]: 5.30 to 6.00 | pIC50 (RNR (RNR1:RNR2 1:1)): ≥ 7.30

CN(c1ccc(O)cc1)C1CN(S(=O)(=O)c2ccc3ccn(C)c3c2)C1 [compound 23, 4-(methyl(1-((1-methyl-1H-indol-6-yl)sulfonyl)azetidin-3-yl)amino)phenol]
pIC50 [1]: 5.30 to 6.00 | pIC50 (RNR (RNR1:RNR2 1:1)): ≥ 7.30

CN(c1ccc(O)cc1)C1CN(S(=O)(=O)c2cccc3[nH]ccc23)C1 [compound 24, 4-((1-((1H-indol-4-yl)sulfonyl)azetidin-3-yl)(methyl)amino)phenol]
pIC50 [1]: 5.30 to 6.00 | pIC50 (RNR (RNR1:RNR2 1:1)): 7.00 to 7.30

CCN(c1ccc(O)cc1)C1CN(S(=O)(=O)c2ccc3cc[nH]c3c2)C1 [compound 25, 4-((1-((1H-indol-6-yl)sulfonyl)azetidin-3-yl)(ethyl)amino)phenol]
pIC50 [1]: ≥ 6.00 | pIC50 (RNR (RNR1:RNR2 1:1)): ≥ 7.30

O=S(=O)(c1ccc2cc[nH]c2c1)N1C[C@H]2CC[C@@H](C1)N2c1ccc(O)cc1 [compound 26, 4-((1R,5S)-3-((1H-indol-6-yl)sulfonyl)-3,8-diazabicyclo[3.2.1]octan-8-yl)phenol]
pIC50 [1]: 5.00 to 5.30 | pIC50 (RNR (RNR1:RNR2 1:1)): 6.30 to 7.00

CN(c1ccc(O)cc1)C1CN(S(=O)(=O)c2ccc3[nH]ccc3c2)C1 [compound 27, 4-((1-((1H-indol-5-yl)sulfonyl)azetidin-3-yl)(methyl)amino)phenol]
pIC50 [1]: ≥ 6.00 | pIC50 (RNR (RNR1:RNR2 1:1)): ≥ 7.30

O=S(=O)(c1ccc2cc[nH]c2c1)N1C[C@H]2CCC[C@@H](C1)N2c1ccc(O)cc1 [compound 28, 4-((1R,5S)-3-((1H-indol-6-yl)sulfonyl)-3,9-diazabicyclo[3.3.1]nonan-9-yl)phenol]
pIC50 [1]: 5.30 to 6.00 | pIC50 (RNR (RNR1:RNR2 1:1)): ≥ 7.30

CN(CC1CN(S(=O)(=O)c2ccc3cc[nH]c3c2)C1)c1ccc(O)cc1 [compound 29, 4-(((1-((1H-indol-6-yl)sulfonyl)azetidin-3-yl)methyl)(methyl)amino) phenol]
pIC50 [1]: 5.00 to 5.30 | pIC50 (RNR (RNR1:RNR2 1:1)): ≥ 7.30

O=S(=O)(c1ccc2cc[nH]c2c1)N1[C@@H]2CCC[C@H]1CN(c1ccc(O)cc1)C2 [compound 34, 4-((1R,5S)-9-((1H-indol-6-yl)sulfonyl)-3,9-diazabicyclo[3.3.1]nonan-3-yl)phenol]
pIC50 [1]: 5.30 to 6.00 | pIC50 (RNR (RNR1:RNR2 1:1)): ≥ 7.30

O=S(=O)(c1ccc2cc[nH]c2c1)N1CC2CC1CN2c1ccc(O)cc1 (centres unmarked) [compound 35, 4-(5-((1H-indol-6-yl)sulfonyl)-2,5-diazabicyclo[2.2.1]heptan-2-yl)phenol]
pIC50 [1]: 4.30 to 5.00 | pIC50 (RNR (RNR1:RNR2 1:1)): 6.30 to 7.00

O=S(=O)(c1ccc2cc[nH]c2c1)N1CCC(Oc2ccc(O)cc2)C1 (centres unmarked) [compound 40, 4-((1-((1H-indol-6-yl)sulfonyl)pyrrolidin-3-yl)oxy)phenol]
pIC50 [1]: ≥ 6.00 | pIC50 (RNR (RNR1:RNR2 1:1)): ≥ 7.30

Cn1ccc2ccc(S(=O)(=O)N3CCC4(CCN(c5ccc(O)cc5)CC4)C3)cc21 [compound 41, 4-(2-((1-methyl-1H-indol-6-yl)sulfonyl)-2,8-diazaspiro[4.5]decan-8-yl)phenol]
pIC50 [1]: 4.30 to 5.00 | pIC50 (RNR (RNR1:RNR2 1:1)): 6.30 to 7.00

O=S(=O)(c1ccc2cc[nH]c2c1)N1CCC(Oc2ccc(O)cc2)CC1 [compound 43, 4-((1-((1H-indol-6-yl)sulfonyl)piperidin-4-yl)oxy)phenol]
pIC50 [1]: 5.30 to 6.00 | pIC50 (RNR (RNR1:RNR2 1:1)): ≥ 7.30

O=S(=O)(c1ccc2cc[nH]c2c1)N1CC(O)C(Nc2ccc(O)cc2)C1 (centres unmarked) [compound 44, 1-((1H-indol-6-yl)sulfonyl)-4-((4-hydroxyphenyl)amino) pyrrolidin-3-ol]
pIC50 [1]: 5.00 to 5.30 | pIC50 (RNR (RNR1:RNR2 1:1)): 7.00 to 7.30

CN(CC1CCN1S(=O)(=O)c1ccc2cc[nH]c2c1)c1ccc(O)cc1 (centres unmarked) [compound 45, 4-(((1-((1H-indol-6-yl)sulfonyl)azetidin-2-yl)methyl)(methyl)amino) phenol]
pIC50 [1]: 5.00 to 5.30 | pIC50 (RNR (RNR1:RNR2 1:1)): 7.00 to 7.30

O=S(=O)(c1ccc2cc[nH]c2c1)N1CCN(c2ccc(O)cc2)CC12CCC2 [compound 46, 4-(5-((1H-indol-6-yl)sulfonyl)-5,8-diazaspiro[3.5]nonan-8-yl)phenol]
pIC50 [1]: 5.30 to 6.00 | pIC50 (RNR (RNR1:RNR2 1:1)): 7.00 to 7.30

O=S(=O)(c1cc2ccccc2[nH]1)N1CCC2(CCN(c3ccc(O)cc3)CC2)C1 [compound 47, 4-(2-((1H-indol-2-yl)sulfonyl)-2,8-diazaspiro[4.5]decan-8-yl)phenol]
pIC50 [1]: 4.30 to 5.00 | pIC50 (RNR (RNR1:RNR2 1:1)): 6.30 to 7.00

O=S(=O)(c1ccc2cc[nH]c2c1)N1CC[C@H](N(Cc2cccnc2)c2ccc(O)cc2)C1 [compound 50, (S)-4-((1-((1H-indol-6-yl)sulfonyl)pyrrolidin-3-yl)(pyridin-3-ylmethyl)amino)phenol]
pIC50 [1]: 4.30 to 5.00 | pIC50 (RNR (RNR1:RNR2 1:1)): 6.30 to 7.00
